Key:
[1] = target: T1, KRAS G12D (Homo sapiens, UniProt P01116, G12D); assay: HTRF nucleotide exchange assay, KRAS G12D; format: biochemical; details: class symbols; for IC50: HTRF nucleotide exchange assay (NEA)
T1 construct: aa1-188 KRAS WT, HRAS WT, NRAS WT, or KRAS containing the G12D

[2] = target: T2, KRAS WT (Homo sapiens, UniProt P01116); assay: HTRF nucleotide exchange assay, KRAS WT; format: biochemical; details: class symbols; for IC50: HTRF nucleotide exchange assay (NEA)
T2 construct: aa1-188 KRAS WT

Compound | IC50 [1] [nM] | IC50 [2] [nM] | KRAS^G12D NEA [1] | KRAS^WT NEA [2]
CCc1c(F)ccc2cc(O)cc(-c3c(F)c4nc(OCC5(CN(CC)CC)CC5)nc(N5CCOCC(C)(O)C5)c4c4cn(C)nc34)c12 (stereo not drawn) [Example 166, -[7-[[1-(diethylaminomethyl)cyclopropyl]methoxy]-4-[8-ethyl-7-fluoro-3-(methoxymethoxy)-1-naphthyl]-5-fluoro-2-methyl-pyrazolo[4,3-f]quinazolin-9-yl]-6-methyl-1,4-oxazepan-6-ol] | ≤ 10 | ≤ 10 |  | 
CCc1c(F)ccc2cc(O)cc(-c3c(F)c4nc(OC[C@@]56CCCN5C[C@H](F)C6)nc(N5CC6CCC(C5)N6)c4c4cn(C)nc34)c12 [Example 99, 4-[9-(3,8-diazabicyclo[3.2.1]octan-3-yl)-5-fluoro-2-methyl-7-[[(2R,8S)-2-fluoro-1,2,3,5,6,7-hexahydropyrrolizin-8-yl]methoxy]pyrazolo[4,3-f]quinazolin-4-yl]-5-ethyl-6-fluoro-naphthalen-2-ol] | ≤ 10 | ≤ 10 |  | 
CCc1c(F)ccc2cc(O)cc(-c3c(C)c4nc(OC[C@@H]5CCN5)nc(N5CCOCC(C)(O)C5)c4c4cn(C)nc34)c12 (stereo partly drawn) [Example 144, 4-[4-(8-ethyl-7-fluoro-3-hydroxy-1-naphthyl)-2,5-dimethyl-7-[[(2S)-azetidin-2-yl]methoxy]pyrazolo[4,3-f]quinazolin-9-yl]-6-methyl-1,4-oxazepan-6-ol] | ≤ 10 | 10 to 100 |  | 
CCc1c(F)ccc2cc(O)cc(-c3cc4nc(OC[C@@H]5CCN5)nc(N5CCCn6nc(C(=O)N(C)C)cc6C5)c4c4cn(C)nc34)c12 [Example 50, 5-[4-(8-ethyl-7-fluoro-3-hydroxy-1-naphthyl)-2-methyl-7-[[(2S)-azetidin-2-yl]methoxy]pyrazolo[4,3-f]quinazolin-9-yl]-N,N-dimethyl-4,6,7,8-tetrahydropyrazolo[1,5-a][1,4]diazepine-2-carboxamide] | ≤ 10 | 10 to 100 |  | 
Cc1c(-c2ccc(F)c3sc(N)c(C#N)c23)c2nn(C)cc2c2c(N3CCCn4nc(C(=O)N(C)C)cc4C3)nc(OC[C@@]34CCCN3C[C@H](F)C4)nc12 [Example 101, 5-[4-(2-amino-3-cyano-7-fluoro-benzothiophen-4-yl)-7-[[(2R,8S)-2-fluoro-1,2,3,5,6,7-hexahydropyrrolizin-8-yl]methoxy]-2,5-dimethyl-pyrazolo[4,3-f]quinazolin-9-yl]-N,N-dimethyl-4,6,7,8-tetrahydropyrazolo[1,5-a][1,4]diazepine-2-carboxamide] | ≤ 10 | ≤ 10 |  | 
CCc1c(F)ccc2cc(O)cc(-c3c(F)c4nc(OCC5(CN6CC(C#N)C6)CC5)nc(N5CCOCC(C)(O)C5)c4c4cn(C)nc34)c12 (stereo not drawn) [Example 171, 1-[[1-[[4-(8-ethyl-7-fluoro-3-hydroxy-1-naphthyl)-5-fluoro-9-(6-hydroxy-6-methyl-1,4-oxazepan-4-yl)-2-methyl-pyrazolo[4,3-f]quinazolin-7-yl]oxymethyl]cyclopropyl]methyl]azetidine-3-carbonitrile] | ≤ 10 | ≤ 10 |  | 

Other lines, results leading:

IC50 [1] [nM] | IC50 [2] [nM] | KRAS^G12D NEA [1] | KRAS^WT NEA [2] | Compound
 | 100 to 10000 | D (<49% inhibition at 10 μM) |  | CCc1c(F)ccc2cc(O)cc(-c3cc4nc(OC[C@@]56CCCN5C[C@H](F)C6)nc(N5CCCOCC5)c4c4cnn(C)c34)c12 [Example 46, 5-ethyl-6-fluoro-4-[3-methyl-9-(1,4-oxazepan-4-yl)-7-[[(2R,8S)-2-fluoro-1,2,3,5,6,7-hexahydropyrrolizin-8-yl]methoxy]pyrazolo[4,3-f]quinazolin-4-yl]naphthalen-2-ol]
100 to 10000 | 10 to 100 |  |  | CCc1c(F)ccc2cc(O)cc(-c3c(F)c4nc(OC[C@@]56CCCN5C[C@H](F)C6)nc(N5C[C@H]6COC[C@@H]6C5)c4c4cn(C)nc34)c12 [Example 175, 5-ethyl-6-fluoro-4-[5-fluoro-2-methyl-9-[(3aS,6aS)-1,3,3a,4,6,6a-hexahydrofuro[3,4-c]pyrrol-5-yl]-7-[[(2R,8S)-2-fluoro-1,2,3,5,6,7-hexahydropyrrolizin-8-yl]methoxy]pyrazolo[4,3-f]quinazolin-4-yl]naphthalen-2-ol]
10 to 100 | 100 to 10000 |  |  | CN(C)C(=O)c1cc2n(n1)CCCN(c1nc(OC[C@@]34CCCN3C[C@H](F)C4)nc3cc(-c4cc(O)ccc4C#N)c4nn(C)cc4c13)C2 [Example 62]
≤ 10 | ≤ 10 |  |  | CCc1c(F)ccc2cc(O)cc(-c3cc4nc(OC[C@@]56CCCN5C[C@H](F)C6)nc(N5CC6CC(O)C(C6)C5)c4c4cn(C)nc34)c12 (stereo partly drawn) [Example 124, 3-[4-(8-ethyl-7-fluoro-3-hydroxy-1-naphthyl)-2-methyl-7-[[(2R,8S)-2-fluoro-1,2,3,5,6,7-hexahydropyrrolizin-8-yl]methoxy]pyrazolo[4,3-f]quinazolin-9-yl]-3-azabicyclo[3.2.1]octan-6-ol]
≤ 10 | ≤ 10 |  |  | C#Cc1c(F)ccc2cc(O)cc(-c3cc4nc(OC[C@@]56CCCN5C[C@H](F)C6)nc(N5CCOCC(C)(O)C5)c4c4cn(C)nc34)c12 (stereo partly drawn) [Example 11, 4-[4-(8-ethynyl-7-fluoro-3-hydroxy-1-naphthyl)-2-methyl-7-[[(2R,8S)-2-fluoro-1,2,3,5,6,7-hexahydropyrrolizin-8-yl]methoxy]pyrazolo[4,3-f]quinazolin-9-yl]-6-methyl-1,4-oxazepan-6-ol]
≤ 10 | ≤ 10 |  |  | CCc1c(F)ccc2cc(O)cc(-c3cc4nc(OC[C@@]56CCCN5C[C@H](F)C6)nc(N5CCOCC(O)C5)c4c4cn(C)nc34)c12 (stereo partly drawn) [Example 120, 4-[4-(8-ethyl-7-fluoro-3-hydroxy-1-naphthyl)-2-methyl-7-[[(2R,8S)-2-fluoro-1,2,3,5,6,7-hexahydropyrrolizin-8-yl]methoxy]pyrazolo[4,3-f]quinazolin-9-yl]-1,4-oxazepan-6-ol]
≤ 10 | ≤ 10 |  |  | CCc1c(F)ccc2cc(O)cc(-c3c(F)c4nc(OCC5(CN6CCC(C#N)C6)CC5)nc(N5CCOCC(C)(O)C5)c4c4cn(C)nc34)c12 (stereo not drawn) [Example 170, 1-[[1-[[4-(8-ethyl-7-fluoro-3-hydroxy-1-naphthyl)-5-fluoro-9-(6-hydroxy-6-methyl-1,4-oxazepan-4-yl)-2-methyl-pyrazolo[4,3-f]quinazolin-7-yl]oxymethyl]cyclopropyl]methyl]pyrrolidine-3-carbonitrile]
≤ 10 | ≤ 10 |  |  | CCc1c(F)ccc2cc(O)cc(-c3cc4nc(OC[C@@]56CCCN5C[C@H](F)C6)nc(N5CCOC[C@@](C)(O)C5)c4c4cn(C)nc34)c12 [Example 40, (6S)-4-[4-(8-ethyl-7-fluoro-3-hydroxy-1-naphthyl)-2-methyl-7-[[(2R,8S)-2-fluoro-1,2,3,5,6,7-hexahydropyrrolizin-8-yl]methoxy]pyrazolo[4,3-f]quinazolin-9-yl]-6-methyl-1,4-oxazepan-6-ol]
 |  | D (<49% inhibition at 10 μM) | D (<49% inhibition at 10 μM) | Cc1cc(N)nc(-c2cc3nc(OCC45CCCN4CC(F)C5)nc(N4CCCOCC4)c3c3cn(C)nc23)c1C(F)(F)F [Example 16, 4-methyl-6-[2-methyl-9-(1,4-oxazepan-4-yl)-7-[(2R,8S)-2-fluoro-1,2,3,5,6,7-hexahydropyrrolizin-8-yl]methoxy]pyrazolo[4,3-f]quinazolin-4-yl]-5-(trifluoromethyl)pyridin-2-amine]

Source: US20260347364A1, “PYRAZOLO[4,3-F]QUINAZOLINE DERIVATIVES AS MODULATORS OF G12D MUTANT KRAS USEFUL FOR THE TREATMENT OF CANCER” (JAZZ PHARMACEUTICALS IRELAND LTD., priority 2023, published 2026)
